Measured values as given in ChEMBL document CHEMBL3880421, “Indazole compounds and pharmaceutical compositions for inhibiting protein kinases, and methods for their use” (2003).

Assay: Antiproliferative activity against VEGF-stimulated HUVEC cells assessed as reduction in cell viability at 0.5 nM preincubated for 1 hr followed by addition of VEGF measured after 72 hrs by MTT assay
Type: functional
Conditions: Homo sapiens

| SMILES | inhibition at 0.0005 µM |
| --- | --- |
| Cc1nc(O)cc(NC(=O)c2ccccc2Sc2ccc3c(/C=C/c4ccccn4)n[nH]c3c2)n1 | 3% |
| CC(C)OCCNC(=O)c1ccccc1Nc1ccc2c(/C=C/c3ccccn3)n[nH]c2c1 | 51% |
| O=C(Nc1ccc2ncsc2c1)c1ccccc1Sc1ccc2c(/C=C/c3ccccn3)n[nH]c2c1 | -20% |
| O=C(N[C@@H]1CN2CC[C@H]1C2)c1ccccc1Nc1ccc2c(/C=C/c3ccccn3)n[nH]c2c1 | 12% |
| C[C@@H](O)CNC(=O)c1ccccc1Sc1ccc2c(/C=C/c3ccccn3)n[nH]c2c1 | 22% |
| CC(C)(NC(=O)c1ccccc1Sc1ccc2c(/C=C/c3ccccn3)n[nH]c2c1)c1ccccc1 | -25% |
| O=C(NCc1cc(F)cc(F)c1F)c1ccccc1Sc1ccc2c(/C=C/c3ccccn3)n[nH]c2c1 | 24% |
| CNc1ccccc1NC(=O)c1ccccc1Sc1ccc2c(/C=C/c3ccccn3)n[nH]c2c1 | -2% |
| O=C(N[C@H](CO)[C@@H](O)c1ccccc1)c1ccccc1Sc1ccc2c(/C=C/c3ccccn3)n[nH]c2c1 | 10% |
| Cc1ccc(NC(=O)c2ccccc2Sc2ccc3c(/C=C/c4ccccn4)n[nH]c3c2)cc1 | -15% |
| CCOC(=O)c1c[nH]nc1NC(=O)c1ccccc1Sc1ccc2c(/C=C/c3ccccn3)n[nH]c2c1 | -11% |
| CC(=O)Nc1cccc(NC(=O)c2ccccc2Sc2ccc3c(/C=C/c4ccccn4)n[nH]c3c2)c1 | -29% |
| O=C(Nc1ccc(O)c2ccccc12)c1ccccc1Sc1ccc2c(/C=C/c3ccccn3)n[nH]c2c1 | 4% |
| O=C(NCc1ccc2c(c1)OCC2)c1ccccc1Sc1ccc2c(/C=C/c3ccccn3)n[nH]c2c1 | 14% |
| Cc1cc(F)ccc1NC(=O)c1ccccc1Sc1ccc2c(/C=C/c3ccccn3)n[nH]c2c1 | -22% |
| O=C(N[C@@H](CO)Cc1ccccc1)c1ccccc1Sc1ccc2c(/C=C/c3ccccn3)n[nH]c2c1 | -3% |
| CCCCNC(=O)c1ccccc1Nc1ccc2c(/C=C/c3ccccn3)n[nH]c2c1 | 52% |
| O=C(N[C@H]1CCc2ccccc21)c1ccccc1Sc1ccc2c(/C=C/c3ccccn3)n[nH]c2c1 | 8 to 15% |
| CNC(=O)c1cccc(NC(=O)c2ccccc2Sc2ccc3c(/C=C/c4ccccn4)n[nH]c3c2)c1 | -11% |
| C[C@@H](NC(=O)c1ccccc1Sc1ccc2c(/C=C/c3ccccn3)n[nH]c2c1)C1CCCCC1 | 9% |
| COc1sc(NC(=O)c2ccccc2Sc2ccc3c(/C=C/c4ccccn4)n[nH]c3c2)nc1C | -2% |

| SMILES | inhibition at 0.0005 µM |
| --- | --- |
| CC(C)(C)c1cccc(NC(=O)c2ccccc2Sc2ccc3c(/C=C/c4ccccn4)n[nH]c3c2)c1 | -5% |
| O=C(Nc1cccc2c1CCCC2)c1ccccc1Sc1ccc2c(/C=C/c3ccccn3)n[nH]c2c1 | -17% |
| CCCc1ccc(NC(=O)c2ccccc2Sc2ccc3c(/C=C/c4ccccn4)n[nH]c3c2)cc1 | 22% |
| C[C@H](CNC(=O)c1ccccc1Sc1ccc2c(/C=C/c3ccccn3)n[nH]c2c1)c1ccccc1 | -9% |
| O=C(Nc1cc(Cl)ccc1O)c1ccccc1Sc1ccc2c(/C=C/c3ccccn3)n[nH]c2c1 | -22% |
| O=C(NCc1ccc2c(c1)OCO2)c1ccccc1Nc1ccc2c(/C=C/c3ccccn3)n[nH]c2c1 | 46% |
| Cc1ccc(F)c(NC(=O)c2ccccc2Sc2ccc3c(/C=C/c4ccccn4)n[nH]c3c2)c1 | -1% |
| Cc1cc(C)cc(NC(=O)c2ccccc2Sc2ccc3c(/C=C/c4ccccn4)n[nH]c3c2)c1 | -4% |
| O=C(Nc1c(F)cccc1Cl)c1ccccc1Sc1ccc2c(/C=C/c3ccccn3)n[nH]c2c1 | 12% |
| O=C(NC12CC3CC(CC(C3)C1)C2)c1ccccc1Sc1ccc2c(/C=C/c3ccccn3)n[nH]c2c1 | 3% |
| CCOC(=O)c1cccc(NC(=O)c2ccccc2Sc2ccc3c(/C=C/c4ccccn4)n[nH]c3c2)c1 | 7% |
| O=C(NCc1ccccc1)c1ccccc1Nc1ccc2c(/C=C/c3ccccn3)n[nH]c2c1 | 70% |
| COc1ccc(C(N)=O)cc1NC(=O)c1ccccc1Sc1ccc2c(/C=C/c3ccccn3)n[nH]c2c1 | 5% |
| COc1ccccc1CNC(=O)c1ccccc1Nc1ccc2c(/C=C/c3ccccn3)n[nH]c2c1 | 36% |
| CC(C)(C)CNC(=O)c1ccccc1Nc1ccc2c(/C=C/c3ccccn3)n[nH]c2c1 | 5 to 19% |
| O=C(Nc1nccnn1)c1ccccc1Sc1ccc2c(/C=C/c3ccccn3)n[nH]c2c1 | 3% |
| O=C(Nc1cnc2ccccc2c1)c1ccccc1Sc1ccc2c(/C=C/c3ccccn3)n[nH]c2c1 | -8% |
| Cc1cc(C)c(NC(=O)c2ccccc2Sc2ccc3c(/C=C/c4ccccn4)n[nH]c3c2)c(Cl)c1 | -26% |
| C[C@H](NC(=O)c1ccccc1Sc1ccc2c(/C=C/c3ccccn3)n[nH]c2c1)c1ccccc1 | -3% |
| CCC(C)(C)NC(=O)c1ccccc1Sc1ccc2c(/C=C/c3ccccn3)n[nH]c2c1 | -29% |
| CC(C)ONC(=O)c1ccccc1Nc1ccc2c(/C=C/c3ccccn3)n[nH]c2c1 | 35% |

| SMILES | inhibition at 0.0005 µM |
| --- | --- |
| Cc1ccccc1NC(=O)c1ccccc1Sc1ccc2c(/C=C/c3ccccn3)n[nH]c2c1 | 5% |
| O=C(N[C@H](CO)[C@H](O)c1ccccc1)c1ccccc1Sc1ccc2c(/C=C/c3ccccn3)n[nH]c2c1 | -1% |
| CCC(NC(=O)c1ccccc1Nc1ccc2c(/C=C/c3ccccn3)n[nH]c2c1)c1ccccc1 (stereo not drawn) | 45% |
| COc1cccc(OC)c1NC(=O)c1ccccc1Sc1ccc2c(/C=C/c3ccccn3)n[nH]c2c1 | -57% |
| O=C(N[C@H](CO)Cc1ccccc1)c1ccccc1Sc1ccc2c(/C=C/c3ccccn3)n[nH]c2c1 | 1% |
| C[C@@H](NC(=O)c1ccccc1Sc1ccc2c(/C=C/c3ccccn3)n[nH]c2c1)c1ccccc1 | 9% |
| O=C(NCc1ccco1)c1ccccc1Nc1ccc2c(/C=C/c3ccccn3)n[nH]c2c1 | 70% |
| Cc1cc(C)c(O)c(NC(=O)c2ccccc2Sc2ccc3c(/C=C/c4ccccn4)n[nH]c3c2)c1 | -5% |
| C[C@@H](CNC(=O)c1ccccc1Sc1ccc2c(/C=C/c3ccccn3)n[nH]c2c1)c1ccccc1 | 3% |
| COc1ccc(NC(=O)c2ccccc2Sc2ccc3c(/C=C/c4ccccn4)n[nH]c3c2)cc1O | -19% |
| Cc1cc(C)c(NC(=O)c2ccccc2Sc2ccc3c(/C=C/c4ccccn4)n[nH]c3c2)c(C)c1 | -10% |
| CCc1cccc(C)c1NC(=O)c1ccccc1Sc1ccc2c(/C=C/c3ccccn3)n[nH]c2c1 | -4% |
| Cc1ccccc1C(=O)NNC(=O)c1ccccc1Nc1ccc2c(/C=C/c3ccccn3)n[nH]c2c1 | 86% |
| O=C(Nc1cccc2ccc(O)cc12)c1ccccc1Sc1ccc2c(/C=C/c3ccccn3)n[nH]c2c1 | -6% |
| O=C(Nc1cc(F)cc(F)c1)c1ccccc1Sc1ccc2c(/C=C/c3ccccn3)n[nH]c2c1 | -36% |
| C[C@@H](NC(=O)c1ccccc1Sc1ccc2c(/C=C/c3ccccn3)n[nH]c2c1)c1cccc2ccccc12 | 1% |
| O=C(NNC(=O)c1ccccc1Nc1ccc2c(/C=C/c3ccccn3)n[nH]c2c1)c1cccnc1 | 31% |
| COC(=O)c1ccc(NC(=O)c2ccccc2Sc2ccc3c(/C=C/c4ccccn4)n[nH]c3c2)c(O)c1 | -22% |
| O=C(NCc1ccccc1F)c1ccccc1Nc1ccc2c(/C=C/c3ccccn3)n[nH]c2c1 | 75% |
| O=C(N[n+]1ccccc1)c1ccccc1Nc1ccc2c(/C=C/c3ccccn3)n[nH]c2c1 | 48% |
| O=C(NCCCc1ccccc1)c1ccccc1Nc1ccc2c(/C=C/c3ccccn3)n[nH]c2c1 | 50% |

| SMILES | inhibition at 0.0005 µM |
| --- | --- |
| C[C@H](NC(=O)c1ccccc1Sc1ccc2c(/C=C/c3ccccn3)n[nH]c2c1)c1cccc2ccccc12 | -20% |
| Cn1c(NC(=O)c2ccccc2Sc2ccc3c(/C=C/c4ccccn4)n[nH]c3c2)nc2ccccc21 | -21% |
| O=C(Nc1ccccc1Cl)c1ccccc1Sc1ccc2c(/C=C/c3ccccn3)n[nH]c2c1 | -2% |
| Cc1cc(NC(=O)c2ccccc2Sc2ccc3c(/C=C/c4ccccn4)n[nH]c3c2)ccc1Cl | -43% |
| Cc1ccc(NC(=O)c2ccccc2Sc2ccc3c(/C=C/c4ccccn4)n[nH]c3c2)cc1Cl | -11% |
| CC(O)c1cccc(NC(=O)c2ccccc2Sc2ccc3c(/C=C/c4ccccn4)n[nH]c3c2)c1 (stereo not drawn) | -32% |
| CCCOCCNC(=O)c1ccccc1Nc1ccc2c(/C=C/c3ccccn3)n[nH]c2c1 | 28% |
| COc1ccc(CNC(=O)c2ccccc2Nc2ccc3c(/C=C/c4ccccn4)n[nH]c3c2)cc1 | 63% |
| O=C(NCCc1cccs1)c1ccccc1Sc1ccc2c(/C=C/c3ccccn3)n[nH]c2c1 | 36% |
| O=C(Nc1cc(F)c(F)c(F)c1)c1ccccc1Sc1ccc2c(/C=C/c3ccccn3)n[nH]c2c1 | 0% |
| O=C(Nc1cncc(Cl)n1)c1ccccc1Sc1ccc2c(/C=C/c3ccccn3)n[nH]c2c1 | 17% |
| C[C@H](NC(=O)c1ccccc1Sc1ccc2c(/C=C/c3ccccn3)n[nH]c2c1)C1CCCCC1 | -12% |
| CCc1cccc(NC(=O)c2ccccc2Sc2ccc3c(/C=C/c4ccccn4)n[nH]c3c2)n1 | -12% |
| COc1ccccc1NC(=O)c1ccccc1Sc1ccc2c(/C=C/c3ccccn3)n[nH]c2c1 | -8% |
| CC(C)(Cc1ccc(F)cc1)NC(=O)c1ccccc1Sc1ccc2c(/C=C/c3ccccn3)n[nH]c2c1 | -7% |
| Cc1cccc(NC(=O)c2ccccc2Sc2ccc3c(/C=C/c4ccccn4)n[nH]c3c2)c1 | 3% |
| O=C(Nc1ccc2c(c1)CCC2)c1ccccc1Sc1ccc2c(/C=C/c3ccccn3)n[nH]c2c1 | -6% |
| Cc1c(O)cccc1NC(=O)c1ccccc1Sc1ccc2c(/C=C/c3ccccn3)n[nH]c2c1 | 1% |
| C[C@H](NC(=O)c1ccccc1Sc1ccc2c(/C=C/c3ccccn3)n[nH]c2c1)[C@H](O)c1ccccc1 | 9% |
| Cc1ccc(F)cc1NC(=O)c1ccccc1Sc1ccc2c(/C=C/c3ccccn3)n[nH]c2c1 | 12% |
